# Test results published in paper PMC11990670, “Exploring the Volatility, Phase Transitions, and Solubility Properties of Five Halogenated Benzaldehydes” (Molecules, 2025).
# Like-named read-outs stand apart in the source and are kept apart here.
# Assays:
# [1] = Thermodynamic properties of sublimation and vaporization from Clarke and Glew fit of vapor pressures
# Source text: The experimental crystalline and liquid vapor pressures were independently fitted by the Clarke and Glew Equation (1) in its truncated form:(1) Rlnp/p^°=−ΔcdgGm°θ/θ+ΔcdgHm°θ1/θ−1/T+ΔcdgCp,m°θθ/T−1+lnT/θ where R is the molar gas constant, p is the vapor pressure at the temperature T, p° is a selected reference pressure (p° = 10^5 Pa in this work), and θ is a reference temperature. The differences between gaseous and condensed phases of standard molar Gibbs energy, enthalpy, and the isobaric heat capacity are represented, respectively, by ΔcdgGm° , ΔcdgHm° , and ΔcdgCp,m° .
# The values of ΔcdgCp,m° are generally achieved only when accurate experimental data measured over ca. 50 K are reachable. […] For comparison reasons, the values of ΔcrgCp,m° were also calculated as ΔcrgCp,m°(θ)=Cp,m°(g)−Cp,m°(cr) , where the terms Cp,m°(g) and Cp,m°(cr) are, respectively, the gas and crystalline isobaric molar heat capacities. […] The crystalline molar heat capacities, Cp,m°(cr) , were determined at different temperatures using differential scanning calorimetry, enabling the fit to second-order polynomials in temperature, represented by Equation (3) and reported in Table 3. […] The values of Cp,m°(cr,298.15 K) were derived from these equations, allowing ΔcrgCp,m°(298.15 K) to be calculated.
# [2] = Equilibrium solubility in water, saturation shake-flask method with UV-vis; conditions: 25 °C, thermodynamic from solid
# Protocol: The concentration was measured by absorbances at 260 nm for 4-chlorobenzaldehyde, 263 nm for 4-bromobenzaldehyde and 2,4-dichlorobenzaldehyde, 297 nm for 2,6-dichlorobenzaldehyde, and 306 nm for 2,3-dichlorobenzaldehyde, using a Cary-60 UV–vis (Agilent) spectrophotometer. X-ray diffraction (XRD) and differential scanning calorimetry of residual solids were used to identify the eventual phase transformations. The purified samples of each compound studied were used for all experimental determinations, including the solubility measurements. After reaching the equilibrium, the residual solid was dried and analyzed using both DSC and XRD. The melting properties obtained from DSC were compared with those of the original purified sample, following the same procedure for the XRD analysis. […] As an example, the supporting information includes two thermograms and two XRD patterns for 2,4-dichlorobenzaldehyde (Figures S1 and S2). […] Equation (4) was derived from Equation (5), which is widely applicable to the solubility of solids.(4) ΔhydrGm°/kJ·mol^−1=9.17−5.71·log10(Scr/mol·m^−3)−ΔcrgGm°/kJ·mol^−1 (5) S=p^°/RTexpΔcrgGm°+ΔhydrGm°/−RT
# An excess amount of each compound was added to a known volume of water in triplicate. […] After stirring, the solid phase was allowed to settle for 2 h. The pH of the saturated solutions was measured using a Mettler Toledo (Greifensee, Switzerland) FiveEasy F20 pH Meter calibrated with standard aqueous solutions (pH 7.00 and 4.01 or 10.1). Those solutions were then filtered through a 0.22 μm syringe hydrophilic filter (13 mm, PTFE, Labfil, Zhejiang, China) and diluted to the required concentration. The concentration of the compounds, expressed in molarity, was measured by absorbances using a Cary-60 UV–vis spectrophotometer (Agilent Technologies, Santa Clara, CA, USA) at 298.15 K (single cell Peltier accessory, ±0.15 K). The results reported in Table 6 are averaged from at least three replicates. Calibration was performed using solutions of known concentrations of each substance in water. These solutions were prepared by adding a precise mass of the substance and a specific volume of the solvent to a flask, then mixing until the substance was fully dissolved. The absorbance of these solutions was measured, and calibration curves were created.
# [3] = 20 °C, cited from earlier work
# [4] = cited from earlier work
# [5] = crystalline phase, θ = 291.18 K (mean temperature)
# [6] = crystalline phase, θ = 298.15 K, p° = 10^5 Pa
# [7] = crystalline phase, θ = 319.43 K (triple point)
# [8] = liquid phase including supercooled liquid, θ = 298.15 K, p° = 10^5 Pa
# [9] = liquid phase, θ = 319.43 K (triple point)
# [10] = liquid phase, θ = 331.52 K (mean temperature)
smiles,measurement,setting,value
O=Cc1ccc(Cl)cc1 [4-Chlorobenzaldehyde],triple point pressure ptp,[1]; Ttp = 319.43 K,1.23 × 10^2 Pa
same,p (Equation (1)) vapor pressure,[1]; [5],8.54 Pa
same,ΔcdgGm°(θ) standard molar Gibbs energy of sublimation,[1]; [5],5.421 ± 0.0024 kcal/mol
same,ΔcdgHm°(θ) standard molar enthalpy of sublimation,[1]; [5],17.6 ± 0.024 kcal/mol
same,p (Equation (1)) vapor pressure,"[1]; crystalline phase, θ = 298.15 K",17.3 Pa
same,ΔcdgGm°(θ) standard molar Gibbs energy of sublimation,[1]; [6],5.131 ± 0.0024 kcal/mol
same,ΔcdgHm°(θ) standard molar enthalpy of sublimation,[1]; [6],17.5 ± 0.048 kcal/mol
same,ΔcdgSm°(θ) (Equation (2)) standard molar entropy of sublimation,[1]; [6],173.8 ± 0.7 J·K^−1·mol^−1
same,p (Equation (1)) vapor pressure,[1]; [7],123 Pa
same,ΔcdgGm°(θ) standard molar Gibbs energy of sublimation,[1]; [7],4.252 ± 0.0048 kcal/mol
same,ΔcdgHm°(θ) standard molar enthalpy of sublimation,[1]; [7],17.4 ± 0.14 kcal/mol
same,p (Equation (1)) vapor pressure,"[1]; liquid phase including supercooled liquid, θ = 298.15 K",27.3 Pa
same,ΔcdgGm°(θ) standard molar Gibbs energy of vaporization,[1]; [8],4.861 ± 0.0072 kcal/mol
same,ΔcdgHm°(θ) standard molar enthalpy of vaporization,[1]; [8],13.6 ± 0.14 kcal/mol
same,ΔcdgSm°(θ) (Equation (2)) standard molar entropy of vaporization,[1]; [8],122.0 ± 2.0 J·K^−1·mol^−1
same,p (Equation (1)) vapor pressure,[1]; [9],123 Pa
same,ΔcdgGm°(θ) standard molar Gibbs energy of vaporization,[1]; [9],4.252 ± 0.0048 kcal/mol
same,ΔcdgHm°(θ) standard molar enthalpy of vaporization,[1]; [9],13.2 ± 0.048 kcal/mol
same,p (Equation (1)) vapor pressure,[1]; [10],262 Pa
same,ΔcdgGm°(θ) standard molar Gibbs energy of vaporization,[1]; [10],3.917 ± 0.0024 kcal/mol
same,ΔcdgHm°(θ) standard molar enthalpy of vaporization,[1]; [10],13 ± 0.024 kcal/mol
same,solubility at 72 h,[2],8.83 mM
same,water solubility,[3]; converted from 935 mg/L,6.652 mM
same,water solubility,[3],935 µg/mL
same,"water solubility, estimated value","[4]; 25 °C, converted from 1340 mg/L",9.532 mM
same,"water solubility, estimated value",[4]; 25 °C,1340 µg/mL
same,"water solubility, estimated value",[4]; ALI method,8.15 mM
same,"water solubility, estimated value",[4]; ESOL method,3.45 mM
same,"water solubility, estimated value",[4]; SILICO-IT method,1.16 mM
